Results on 37 compounds are retold here after patent publication US7179941B2, “Carbonylamino-substituted acyl phenyl urea derivatives, process for their preparation and their use” (Sanofi-Aventis Deutschland GmbH, priority 2003, dated 2007).

Assay [1] addresses T1, human glycogen phosphorylase a (Homo sapiens, UniProt P06737).
T1 sequence (P06737 1-847): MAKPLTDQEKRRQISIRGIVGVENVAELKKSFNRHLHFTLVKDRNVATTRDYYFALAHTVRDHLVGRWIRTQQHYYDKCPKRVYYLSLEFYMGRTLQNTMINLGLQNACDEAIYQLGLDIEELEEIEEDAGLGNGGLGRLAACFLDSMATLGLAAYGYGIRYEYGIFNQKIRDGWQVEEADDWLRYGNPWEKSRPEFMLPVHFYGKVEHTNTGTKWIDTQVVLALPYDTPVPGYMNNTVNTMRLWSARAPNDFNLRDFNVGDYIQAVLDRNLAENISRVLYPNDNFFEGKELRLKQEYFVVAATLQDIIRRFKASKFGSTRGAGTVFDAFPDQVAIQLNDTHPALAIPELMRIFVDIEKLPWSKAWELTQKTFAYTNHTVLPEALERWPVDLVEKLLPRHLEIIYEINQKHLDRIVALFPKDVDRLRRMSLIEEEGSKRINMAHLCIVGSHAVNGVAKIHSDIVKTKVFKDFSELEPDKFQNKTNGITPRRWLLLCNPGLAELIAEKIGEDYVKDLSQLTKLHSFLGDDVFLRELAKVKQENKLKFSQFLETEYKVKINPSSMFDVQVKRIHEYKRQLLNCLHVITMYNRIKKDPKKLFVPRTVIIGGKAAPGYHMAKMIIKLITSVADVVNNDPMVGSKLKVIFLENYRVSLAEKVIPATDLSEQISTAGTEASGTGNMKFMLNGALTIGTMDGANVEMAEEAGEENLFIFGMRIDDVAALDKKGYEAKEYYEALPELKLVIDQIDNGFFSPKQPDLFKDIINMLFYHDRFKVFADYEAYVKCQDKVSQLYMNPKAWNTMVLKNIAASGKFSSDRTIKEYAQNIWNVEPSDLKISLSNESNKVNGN
Kind of assay: Glycogen phosphorylase a activity test. Type of assay: biochemical. The following applies: 10 μM test substance; GPa measured in reverse direction (glycogen synthesis from glucose 1-phosphate). As to the method:
Glycogen Phophorylase a Activity Test
The effect of compounds on the activity of the active form of glycogen phosphorylase (GPa) was measured in the reverse direction by monitoring the synthesis of glycogen from glucose 1-phosphate by determining the release of inorganic phosphate. All reactions were carried out as duplicate determinations in 96-well microtiter plates (half area plates, Costar No. 3696), and the change in absorption as a consequence of the formation of the reaction product was measured at the wavelength specified below in a Multiskan Ascent Elisa Reader (Lab Systems, Finland).
In order to measure the GPa enzyme activity in the reverse direction, the conversion of glucose 1-phosphate to glycogen and inorganic phosphate was measured by the general method of Engers et al. (Engers HD, Shechosky S, Madsen NB, Can J Biochem 1970 July;48(7):746–754) with the following modifications: human glycogen phosphorylase a (for example containing 0.76 mg of protein/ml (Aventis Pharma Deutschland GmbH), dissolved in buffer solution E (25 mM P-glycerophosphate, pH 7.0, 1 mM EDTA and 1 mM dithiotreitol) was diluted to a concentration of 10 μg of protein/ml with buffer T (50 mM Hepes, pH 7.0, 100 mM KCl, 2.5 mM EDTA, 2.5 mM MgCl2.6H2O) and addition of 5 mg/ml of glycogen. Test substances were prepared as a 10 mM solution in DMSO and diluted to 50 μM with buffer solution T. To 10 μl of this solution were added 10 μl of 37.5 mM glucose dissolved in buffer solution T and 5 mg/ml of glycogen, and also 10 μl of a solution of human glycogen phosphorylase a (10 μg of protein/ml) and 20 μl of 2.5 mM glucose 1-phosphate. The base value of the activity of glycogen phosphorylase a in the absence of test substance was determined by adding 10 μl of buffer solution T (0.1% DMSO). The mixture was incubated at room temperature for 40 minutes and the released inorganic phosphate was determined by means of the general method of Drueckes et al. (Drueckes P, Schinzel R, Palm D, Anal Biochem 1995 Sep. 1;230(1):173–177) with the following modifications: 50 μl of a stop solution of 7.3 mM of ammonium molybdate, 10.9 mM of zinc acetate, 3.6% of ascorbic acid, 0.9% of SDS are added to 50 μl of the enzyme mixture. After 60 minutes of incubation at 45° C., the absorption was measured at 820 nm. To determine the background absorption, the stop solution was added immediately after the addition of the glucose 1-phosphate solution in a separate reaction.

Assay [2] addresses T1, human glycogen phosphorylase a. Briefly: Glycogen phosphorylase a activity test. Type of assay: biochemical. The following applies: read-out: inhibition at a concentration of 100 μM.

Each structure is given as a SMILES string.

In general, % Inhibition refers to the relative decrease from the control value, in per cent. In the case of `O=C(O)C(=O)Nc1ccccc1C(=O)O` [Comparative Example A, reference compound], the “% Inhibition at 10 μM” value in assay [1] is given as “no inhibition”. Also, the inhibition at 100 µM in assay [2] stood at 11%.

Take `O=C(O)CC(=O)Nc1ccc(Cl)c(NC(=O)NC(=O)c2cc(F)c(F)cc2Cl)c1` [Example 86]: the “% Inhibition at 10 μM” value in assay [1] is reported as 95%.

For the compound `COc1ccc2oc(C(=O)Nc3ccc(OC)c(NC(=O)NC(=O)c4cc(F)c(F)cc4Cl)c3)cc2c1` [Example 38], the “% Inhibition at 10 μM” value in assay [1] is 102%.

As for `CCOCC(=O)Nc1ccc(OC)c(NC(=O)NC(=O)c2cc(F)c(F)cc2Cl)c1` [Example 59], the “% Inhibition at 10 μM” value in assay [1] worked out at 103%.

With `COc1ccc(NC(=O)C2CC2)cc1NC(=O)NC(=O)c1cc(F)c(F)cc1Cl` [Example 31], the “% Inhibition at 10 μM” value in assay [1] worked out at 98%.

In the case of `COc1ccc(NC(=O)c2cccnc2)cc1NC(=O)NC(=O)c1cc(F)c(F)cc1Cl` [Example 28], the “% Inhibition at 10 μM” value in assay [1] turned out to be 89%.

In the case of `COC(=O)C(=O)Nc1cc(NC(=O)NC(=O)c2cc(F)c(F)cc2Cl)c(OC)cc1C` [Example 15], in assay [1], the “% Inhibition at 10 μM” value is 101%.

Turning to `CCCCC(=O)Nc1ccc(OC)c(NC(=O)NC(=O)c2cc(F)c(F)cc2Cl)c1` [Example 47], in assay [1], the “% Inhibition at 10 μM” value came to 105%.

Turning to `COc1ccc(NC(C)=O)cc1NC(=O)NC(=O)c1cc(F)c(F)cc1Cl` [Example 1, N-{3-[3-(2-Chloro-4,5-difluorobenzoyl)ureido]-4-methoxyphenyl}acetamide], the inhibition at 10 µM in assay [1] was found to be 99%.

Turning to `COC(=O)CCC(=O)Nc1ccc(OC(F)(F)F)c(NC(=O)NC(=O)c2cc(F)c(F)cc2Cl)c1` [Example 67], the “% Inhibition at 10 μM” value in assay [1] is recorded as 101%.

As to `COc1ccc(NC(=O)c2ccccc2OC(F)(F)F)cc1NC(=O)NC(=O)c1cc(F)c(F)cc1Cl` [Example 51], the “% Inhibition at 10 μM” value in assay [1] turned out to be 92%.

Turning to `COC(=O)CC(=O)Nc1ccc(N2CCCC2)c(NC(=O)NC(=O)c2cc(F)c(F)cc2Cl)c1` [Example 75], the “% Inhibition at 10 μM” value in assay [1] came to 100%.

On to `O=C(O)CC(=O)Nc1ccc(N2CCCC2)c(NC(=O)NC(=O)c2cc(F)c(F)cc2Cl)c1` [Example 77], for which the “% Inhibition at 10 μM” value in assay [1] was 98%.

As to `NCCCC(=O)Nc1cccc(NC(=O)NC(=O)c2ccc(Cl)cc2Cl)c1` [Example 79], the “% Inhibition at 10 μM” value in assay [1] worked out at 80%.

For the compound `COc1ccc(NC(=O)c2cccs2)cc1NC(=O)NC(=O)c1cc(F)c(F)cc1Cl` [Example 29], in assay [1], the “% Inhibition at 10 μM” value was found to be 98%.

Take `O=C(O)CCC(=O)Nc1ccc(OC(F)(F)F)c(NC(=O)NC(=O)c2cc(F)c(F)cc2Cl)c1` [Example 70]: in assay [1], the “% Inhibition at 10 μM” value worked out at 99%.

Consider `COc1ccc(NC(=O)CCC(=O)O)cc1NC(=O)NC(=O)c1ccc(Cl)cc1Cl` [Example 83], for which, in assay [1], the “% Inhibition at 10 μM” value worked out at 103%.

For the compound `COc1cc(C)c(NC(=O)NC(=O)c2cc(F)c(F)cc2Cl)cc1NC(=O)CCC(=O)O` [Example 12], in assay [1], the “% Inhibition at 10 μM” value was 90%.

On to `COc1ccc(NC(=O)COC(C)=O)cc1NC(=O)NC(=O)c1cc(F)c(F)cc1Cl` [Example 49], for which, in assay [1], the “% Inhibition at 10 μM” value was 99%.

In the case of `O=C(NC(=O)c1cc(F)c(F)cc1Cl)Nc1cc(NC(=O)C(=O)O)ccc1OC(F)(F)F` [Example 68], in assay [1], the “% Inhibition at 10 μM” value was 101%.

On to `COc1ccc(NC(=O)C(F)F)cc1NC(=O)NC(=O)c1cc(F)c(F)cc1Cl` [Example 61], for which the “% Inhibition at 10 μM” value in assay [1] turned out to be 100%.

Turning to `CN(C)c1ccc(NC(=O)CC(=O)O)cc1NC(=O)NC(=O)c1cc(F)c(F)cc1Cl` [Example 76], the “% Inhibition at 10 μM” value in assay [1] is 99%.

For `COCC(=O)Nc1ccc(OC)c(NC(=O)NC(=O)c2cc(F)c(F)cc2Cl)c1` [Example 27], in assay [1], the “% Inhibition at 10 μM” value amounted to 98%.

For the compound `CC(=O)Nc1ccc(Cl)c(NC(=O)NC(=O)c2ccc(Cl)cc2Cl)c1.O=C(O)C(F)(F)F` [Example 80], the “% Inhibition at 10 μM” value in assay [1] is recorded as 98%.

For the compound `COc1ccc(NC(=O)C(=O)O)cc1NC(=O)NC(=O)c1cc(F)c(F)cc1Cl` [Example 5], in assay [1], the “% Inhibition at 10 μM” value is reported as 99%.

In the case of `COc1ccc(NC(=O)CN)cc1NC(=O)NC(=O)c1cc(F)c(F)cc1Cl` [Example 52], the “% Inhibition at 10 μM” value in assay [1] is given as 101%.

Turning to `COc1ccc(NC(=O)CC(=O)O)cc1NC(=O)NC(=O)c1cc(F)c(F)cc1Cl` [Example 6], the “% Inhibition at 10 μM” value in assay [1] is reported as 100%.

With `COc1cc(C)c(NC(=O)NC(=O)c2cc(F)c(F)cc2Cl)cc1NC(=O)CC(=O)O` [Example 11], in assay [1], the “% Inhibition at 10 μM” value turned out to be 96%.

Take `COC(=O)CC(=O)Nc1ccc(N(C)C)c(NC(=O)NC(=O)c2cc(F)c(F)cc2Cl)c1` [Example 74]: in assay [1], the “% Inhibition at 10 μM” value stood at 98%.

Consider `COc1ccc(NC(=O)Cc2ccccc2)cc1NC(=O)NC(=O)c1cc(F)c(F)cc1Cl` [Example 37], for which the “% Inhibition at 10 μM” value in assay [1] came to 101%.

`O=C(NC(=O)c1cc(F)c(F)cc1Cl)Nc1cc(NC(=O)C(=O)O)ccc1Cl` [Example 88]: in assay [1], the “% Inhibition at 10 μM” value is recorded as 97%.

Turning to `COc1ccc(NC(=O)c2ccccc2F)cc1NC(=O)NC(=O)c1cc(F)c(F)cc1Cl` [Example 36], the “% Inhibition at 10 μM” value in assay [1] amounted to 101%.

As to `COc1cccc(CC(=O)Nc2ccc(OC)c(NC(=O)NC(=O)c3cc(F)c(F)cc3Cl)c2)c1` [Example 41], the “% Inhibition at 10 μM” value in assay [1] was found to be 104%.

With `COc1ccc(NC(=O)C(=O)c2c[nH]c3ccccc23)cc1NC(=O)NC(=O)c1cc(F)c(F)cc1Cl` [Example 42], the “% Inhibition at 10 μM” value in assay [1] was 83%.

On to `COc1cc(C)c(NC(=O)CC(=O)O)cc1NC(=O)NC(=O)c1cc(F)c(F)cc1Cl` [Example 18], for which, in assay [1], the “% Inhibition at 10 μM” value is listed as 99%.

In the case of `COc1ccc(NC(=O)c2ccc(F)cc2)cc1NC(=O)NC(=O)c1cc(F)c(F)cc1Cl` [Example 40], the “% Inhibition at 10 μM” value in assay [1] turned out to be 98%.

Consider `COC(=O)C(=O)Nc1ccc(OC)c(NC(=O)NC(=O)c2cc(F)c(F)cc2Cl)c1` [Example 2], for which the “% Inhibition at 10 μM” value in assay [1] was found to be 99%.
